Structures are written as SMILES. pIC50: −log10 of the molar value.

The record followed here is ChEMBL document CHEMBL1149679 (Bioorg Med Chem Lett, 2007).

In assay [1] the target is T1, Polyunsaturated fatty acid lipoxygenase ALOX15 (Oryctolagus cuniculus, UniProt P12530).
T1 sequence (P12530 whole entry): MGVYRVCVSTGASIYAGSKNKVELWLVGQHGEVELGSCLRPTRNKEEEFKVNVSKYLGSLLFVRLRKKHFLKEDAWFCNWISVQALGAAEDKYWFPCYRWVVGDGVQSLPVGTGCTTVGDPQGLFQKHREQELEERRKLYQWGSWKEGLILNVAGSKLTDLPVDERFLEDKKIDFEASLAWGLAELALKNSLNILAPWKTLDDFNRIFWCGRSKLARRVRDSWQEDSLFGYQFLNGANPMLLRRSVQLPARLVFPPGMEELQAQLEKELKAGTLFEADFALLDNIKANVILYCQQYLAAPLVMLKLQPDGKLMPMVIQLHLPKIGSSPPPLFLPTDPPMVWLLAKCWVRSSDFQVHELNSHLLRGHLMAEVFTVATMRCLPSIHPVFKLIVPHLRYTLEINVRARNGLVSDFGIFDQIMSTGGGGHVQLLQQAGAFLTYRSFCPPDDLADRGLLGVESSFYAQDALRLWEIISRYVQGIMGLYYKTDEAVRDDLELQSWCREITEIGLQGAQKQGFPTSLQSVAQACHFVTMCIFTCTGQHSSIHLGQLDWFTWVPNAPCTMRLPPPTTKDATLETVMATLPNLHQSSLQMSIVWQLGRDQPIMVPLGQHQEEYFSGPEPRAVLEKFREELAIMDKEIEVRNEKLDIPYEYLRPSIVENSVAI
Nature of the assay: Inhibition of rabbit 15-lipoxygenase in presence of linoleic acid.

Assay [2] concerns the target T1, Polyunsaturated fatty acid lipoxygenase ALOX15. Nature of the assay: Inhibition of rabbit 15-lipoxygenase in presence of arachidonic acid.
The target in assay [3] is T2, Polyunsaturated fatty acid 5-lipoxygenase (Homo sapiens) (UniProt P09917).
T2 sequence (whole entry): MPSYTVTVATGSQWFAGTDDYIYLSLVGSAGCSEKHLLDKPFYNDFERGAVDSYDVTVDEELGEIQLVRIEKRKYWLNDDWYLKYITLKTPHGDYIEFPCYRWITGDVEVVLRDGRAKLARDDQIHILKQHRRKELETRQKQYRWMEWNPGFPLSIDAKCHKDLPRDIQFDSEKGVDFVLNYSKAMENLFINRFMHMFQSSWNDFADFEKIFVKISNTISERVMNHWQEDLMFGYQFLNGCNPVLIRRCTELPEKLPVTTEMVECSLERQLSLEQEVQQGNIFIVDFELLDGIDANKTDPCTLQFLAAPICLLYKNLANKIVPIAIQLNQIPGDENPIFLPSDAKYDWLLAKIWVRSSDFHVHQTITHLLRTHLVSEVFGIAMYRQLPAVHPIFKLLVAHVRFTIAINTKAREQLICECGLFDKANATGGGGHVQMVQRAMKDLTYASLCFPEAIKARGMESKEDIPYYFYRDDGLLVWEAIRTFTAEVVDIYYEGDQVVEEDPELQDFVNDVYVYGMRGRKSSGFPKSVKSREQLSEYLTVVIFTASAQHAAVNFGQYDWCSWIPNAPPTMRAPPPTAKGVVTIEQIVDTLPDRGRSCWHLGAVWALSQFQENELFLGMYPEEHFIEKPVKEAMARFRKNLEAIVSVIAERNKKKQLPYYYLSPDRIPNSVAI
Nature of the assay: Inhibition of human 5-lipoxygenase at 10 uM.

In assay [4] the target is T3, Polyunsaturated fatty acid lipoxygenase ALOX12 (Homo sapiens) (UniProt P18054).
T3 sequence (whole entry): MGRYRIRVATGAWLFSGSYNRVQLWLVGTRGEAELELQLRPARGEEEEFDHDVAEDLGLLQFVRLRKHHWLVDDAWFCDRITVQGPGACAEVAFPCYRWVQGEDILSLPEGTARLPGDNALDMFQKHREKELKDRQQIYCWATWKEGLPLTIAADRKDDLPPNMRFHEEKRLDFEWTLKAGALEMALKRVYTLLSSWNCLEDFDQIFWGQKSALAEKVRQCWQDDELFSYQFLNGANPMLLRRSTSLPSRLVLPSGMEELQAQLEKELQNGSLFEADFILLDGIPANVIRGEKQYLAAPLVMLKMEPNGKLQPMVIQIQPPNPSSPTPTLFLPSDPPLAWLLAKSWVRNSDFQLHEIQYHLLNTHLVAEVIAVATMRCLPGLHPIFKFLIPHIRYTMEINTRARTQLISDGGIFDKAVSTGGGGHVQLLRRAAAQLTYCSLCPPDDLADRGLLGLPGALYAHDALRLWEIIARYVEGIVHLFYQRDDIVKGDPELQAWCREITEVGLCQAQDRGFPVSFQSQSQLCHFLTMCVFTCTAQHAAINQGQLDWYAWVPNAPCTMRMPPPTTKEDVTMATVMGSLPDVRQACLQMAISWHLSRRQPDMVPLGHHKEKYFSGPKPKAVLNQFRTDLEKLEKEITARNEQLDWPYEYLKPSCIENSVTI
Nature of the assay: Inhibition of platelet 12-lipoxygenase at 10 uM.

Assay [5] concerns the target T4, Polyunsaturated fatty acid lipoxygenase ALOX15B (Homo sapiens) (UniProt O15296).
T4 sequence (whole entry): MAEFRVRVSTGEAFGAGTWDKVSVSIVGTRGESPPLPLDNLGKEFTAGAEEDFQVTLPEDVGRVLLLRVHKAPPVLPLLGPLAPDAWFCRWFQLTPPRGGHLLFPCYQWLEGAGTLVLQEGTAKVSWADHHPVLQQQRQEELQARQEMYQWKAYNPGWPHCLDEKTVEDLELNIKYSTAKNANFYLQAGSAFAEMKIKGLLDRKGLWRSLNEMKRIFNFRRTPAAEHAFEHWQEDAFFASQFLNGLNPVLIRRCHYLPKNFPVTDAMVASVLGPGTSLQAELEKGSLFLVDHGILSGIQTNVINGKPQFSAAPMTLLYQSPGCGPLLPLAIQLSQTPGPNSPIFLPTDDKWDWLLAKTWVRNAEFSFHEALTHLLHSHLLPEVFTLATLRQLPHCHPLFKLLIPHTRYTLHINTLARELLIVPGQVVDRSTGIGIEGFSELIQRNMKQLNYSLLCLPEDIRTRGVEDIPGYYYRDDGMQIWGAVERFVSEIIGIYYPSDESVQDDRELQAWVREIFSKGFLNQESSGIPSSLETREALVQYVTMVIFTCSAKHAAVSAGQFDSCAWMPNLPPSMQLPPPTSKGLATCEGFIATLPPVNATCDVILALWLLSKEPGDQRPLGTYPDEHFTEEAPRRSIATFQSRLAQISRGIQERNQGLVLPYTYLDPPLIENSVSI
Nature of the assay: Inhibition of human recombinant 15-lipoxygenase over-expressed in CHO cells at 10 uM. It counts as cell-based.

For the compound `COc1ccc(-c2[nH]c(-c3ccccc3)nc2CCNS(=O)(=O)N2CCN(c3ccc(Cl)c(Cl)c3)CC2)cc1`, the pIC50 in assay [1] was 7.26; in assay [2] it was 6.42.

With `CCCCCc1ccc(S(=O)(=O)NCCCc2nc(-c3cccs3)[nH]c2-c2ccc(OC)cc2)cc1`, the pIC50 in assay [1] was 7.28; in assay [2], 6.40.

On to `COc1ccc(-c2[nH]c(-c3cccs3)nc2CCNS(=O)(=O)N2CCN(c3ccccc3Cl)CC2)cc1`, for which the pIC50 in assay [1] was 7.35; in assay [2] it was 6.88.

As for `COc1ccc(-c2[nH]c(-c3ccccc3)nc2CCNS(=O)(=O)N[C@H]2CCN(Cc3ccccc3)C2)cc1`, the pIC50 was 6.57 in assay [1] and 5.62 in assay [2].

With `CCCCCc1ccc(S(=O)(=O)NCCc2nc(-c3cccnc3)[nH]c2-c2ccc(OC)cc2)cc1`, the negative logarithm of the IC50 (pIC50) in assay [1] is 6.25.

In the case of `COc1ccc(-c2[nH]c(-c3ccccc3)nc2CCNS(=O)(=O)N(C)[C@H]2CCN(Cc3ccccc3)C2)cc1`, the negative logarithm of the IC50 (pIC50) in assay [1] was 7.10; in assay [2], 7.09.

As for `CCCCCc1ccc(S(=O)(=O)NCCc2nc(-c3ccncc3)[nH]c2-c2ccc(OC)cc2)cc1`, the pIC50 is 7.06 in assay [1] and 5.49 in assay [2].

Take `CCCCCc1ccc(S(=O)(=O)NCCc2nc(-c3ccc(Cl)cc3)[nH]c2-c2ccc(OC)cc2)cc1`: the negative logarithm of the IC50 (pIC50) was 7.68 in assay [1] and 5.96 in assay [2].

Consider `COc1ccc(-c2[nH]c(-c3cccs3)nc2CCNS(=O)(=O)N(C)[C@@H]2CCN(Cc3ccc(Cl)c(Cl)c3)C2)cc1`, for which the pIC50 is 7.96 in assay [1] and 7.08 in assay [2]. Besides, the values for the inhibition in assay [3] and in assay [4] were 67% and 42%, respectively.

Turning to `CCCCCc1ccc(S(=O)(=O)NCCc2nc(-c3ccccn3)[nH]c2-c2ccc(OC)cc2)cc1`, the values for the negative logarithm of the IC50 (pIC50) in assay [1] and in assay [2] were 6.01 and 5.27, respectively.

As for `CCCCCc1ccc(S(=O)(=O)NCCc2nc(-c3ccc(OC)cc3)[nH]c2-c2ccc(OC)cc2)cc1`, the pIC50 in assay [1] was below 5.00.

Consider `CCCCCN1CCN(S(=O)(=O)NCCc2nc(-c3cccs3)[nH]c2-c2ccc(OC)cc2)CC1`, for which the pIC50 in assay [1] is 7.04; in assay [2], 6.19.

For `CCCCCc1ccc(S(=O)(=O)NCCc2nc(-c3ccccc3)[nH]c2-c2ccc(C(F)(F)F)cc2)cc1`, the pIC50 in assay [1] is 7.14; in assay [2], 6.43.

As to `CCCCCc1ccc(S(=O)(=O)NCCCc2nc(-c3ccccc3)[nH]c2-c2ccc(OC)cc2)cc1`, the negative logarithm of the IC50 (pIC50) was 6.85 in assay [1] and 6.04 in assay [2].

As to `CCCCCc1ccc(S(=O)(=O)NCCc2nc(-c3ccccc3)[nH]c2-c2ccccc2)cc1`, the pIC50 in assay [1] is 7.48; in assay [2] it was 6.79. The inhibition in assay [3] turned out to be 39%; in assay [4], 32%.

Take `CCCCCc1ccc(S(=O)(=O)NCCc2nc(-c3csc(C)n3)[nH]c2-c2ccc(OC)cc2)cc1`: in assay [1], the pIC50 was 6.14.

Take `CCCCCc1ccc(S(=O)(=O)NCCc2nc(C3CC3)[nH]c2-c2ccc(OC)cc2)cc1`: the negative-log IC50 (pIC50) in assay [1] and in assay [2] was below 5.00 in each case.

For `CCCCCc1ccc(S(=O)(=O)NCCc2nc(-c3cccc([N+](=O)[O-])c3)[nH]c2-c2ccc(OC)cc2)cc1`, the negative-log IC50 (pIC50) is 7.00 in assay [1] and 5.96 in assay [2].

`COc1ccc(-c2[nH]c(-c3ccccc3)nc2CCNS(=O)(=O)c2ccc(C)cc2)cc1`: the negative logarithm of the IC50 (pIC50) in assay [1] was 6.44; in assay [2], 5.55.

As for `COc1ccc(-c2[nH]c(-c3ccccc3)nc2CCNS(=O)(=O)N(C)[C@@H]2CCN(Cc3ccccc3)C2)cc1`, the figures for the negative logarithm of the IC50 (pIC50) in assay [1] and in assay [2] were 7.51 and 6.73, respectively. Also, the inhibition in assay [5] was 70%.

For `COc1ccc(-c2[nH]c(-c3ccccc3)nc2CCNS(=O)(=O)N[C@@H]2CCN(Cc3ccccc3)C2)cc1`, the figures for the pIC50 in assay [1] and in assay [2] were 7.08 and 6.14, respectively.

As to `COc1ccc(-c2[nH]c(-c3ccccc3)nc2CCNS(=O)(=O)N2CCN(c3ccccc3)CC2)cc1`, the negative logarithm of the IC50 (pIC50) was 6.67 in assay [1] and 5.46 in assay [2].

Consider `CCN([C@@H]1CCN(C(C)c2ccc(F)cc2)C1)S(=O)(=O)NCCc1nc(-c2cccs2)[nH]c1-c1ccc(OC)cc1` (stereo partly specified), for which the inhibition in assay [5] is 96%.

For `CCCCCc1ccc(S(=O)(=O)NCCc2nc(-c3ccc(C)cc3)[nH]c2-c2ccc(OC)cc2)cc1`, the pIC50 in assay [1] is below 5.52.

`CCCCCc1ccc(S(=O)(=O)NCCc2nc(-c3cnccn3)[nH]c2-c2ccc(OC)cc2)cc1`: the pIC50 in assay [1] was 5.55.

Take `CCCCCc1ccc(S(=O)(=O)NCCc2nc(C)[nH]c2-c2ccc(OC)cc2)cc1`: in assay [1], the negative-log IC50 (pIC50) was below 5.00.

`CCCCCc1ccc(S(=O)(=O)NCCc2nc(-c3ccccc3)[nH]c2-c2ccc(F)cc2)cc1`: the pIC50 in assay [1] was 7.23; in assay [2], 6.58. Further, the inhibition in assay [3] was 45%; in assay [4], 47%.

`COc1ccc(-c2[nH]c(-c3cccs3)nc2CCNS(=O)(=O)N(C)[C@@H]2CCN(Cc3ccccc3)C2)cc1`: the pIC50 was 7.42 in assay [1] and 6.43 in assay [2].

As to `CCCCCc1ccc(S(=O)(=O)NCCc2[nH]cnc2-c2ccc(OC)cc2)cc1`, in assay [1], the pIC50 is below 5.00.

On to `CCCCCc1ccc(S(=O)(=O)NCCc2nc(-c3ccccc3)[nH]c2-c2cccc(OC)c2)cc1`, for which the pIC50 was 7.09 in assay [1] and 6.27 in assay [2].

Consider `CCCCCc1ccc(S(=O)(=O)NCCc2nc(C(C)(C)C)[nH]c2-c2ccc(OC)cc2)cc1`, for which the pIC50 in assay [1] is 5.72; in assay [2], below 5.00.

In the case of `COc1ccc(-c2[nH]c(-c3cccs3)nc2CCNS(=O)(=O)N2CCN(c3ccc(Cl)c(Cl)c3)CC2)cc1`, the negative-log IC50 (pIC50) is 7.44 in assay [1] and 6.88 in assay [2]. Moreover, in assay [5], the inhibition turned out to be 84%.

`CCN([C@@H]1CCN(C(C)(C)c2ccccc2)C1)S(=O)(=O)NCCc1nc(-c2cccs2)[nH]c1-c1ccc(OC)cc1`: the negative-log IC50 (pIC50) in assay [1] is 8.00; in assay [2], 6.88.

Broadly, the pIC50 is the negative decadic logarithm of the IC50, by convention in mol/L. For orientation: inhibition means the change of the read-out against control, counted positive when it falls.
